Test results from patent US20140090094A1, “MODULATORS OF SLC22A7” (BAYER INTELLECTUAL PROPERTY GmbH, priority 2011, published 2014).

Assays:
OAT2r [1] = target: T1, OAT2r (Rattus norvegicus, UniProt Q5RLM2); experiment: 1 min uptake into 293 cells expressing OAT2 from rat; format: cell-based; conditions: 1 min uptake, 0.1 μmol/l radiotracer or 10 μmol/l unlabeled compound;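 note: uptake at 37 °C, read by liquid scintillation counting or LC-ESI-MS/MS, carrier-mediated part as induced-minus-uninduced expression difference corrected for baseline content, protein by BCA assay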
T1 construct: expressed in transfected cells
T1 sequence (Q5RLM2 1-535): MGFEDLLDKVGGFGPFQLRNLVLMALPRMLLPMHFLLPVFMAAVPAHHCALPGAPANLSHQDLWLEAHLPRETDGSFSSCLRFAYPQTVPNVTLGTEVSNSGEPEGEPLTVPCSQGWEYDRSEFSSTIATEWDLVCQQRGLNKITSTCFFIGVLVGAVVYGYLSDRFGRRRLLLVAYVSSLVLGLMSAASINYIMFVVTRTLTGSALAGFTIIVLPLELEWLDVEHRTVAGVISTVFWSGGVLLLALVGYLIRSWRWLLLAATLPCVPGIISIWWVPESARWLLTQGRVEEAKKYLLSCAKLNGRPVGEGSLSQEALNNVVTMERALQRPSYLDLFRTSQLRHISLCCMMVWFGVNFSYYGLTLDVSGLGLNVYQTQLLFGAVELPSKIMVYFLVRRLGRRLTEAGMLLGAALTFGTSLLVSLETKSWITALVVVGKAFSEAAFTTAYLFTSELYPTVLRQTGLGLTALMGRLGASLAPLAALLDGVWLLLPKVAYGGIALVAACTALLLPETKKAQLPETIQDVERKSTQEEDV
Protocol: (§1) Cells were used for uptake experiments at a confluence of at least 70%. Uptake was measured at 37° C. […] After preincubation for at least 20 minutes in 4 ml of uptake buffer, the buffer was replaced with 2 ml of substrate in uptake buffer. The total substrate concentration if not indicated otherwise was 0.1 μmol/l for radiotracer assays and 10 μmol/l for unlabeled compounds. Incubation was stopped after 1 min by rinsing the cells four times each with 4 ml ice-cold uptake buffer. Radioactivity was determined, after cell lysis with 0.1% v/v Triton X-100 in 5 mmol/l TRIS-HCl pH 7.4, by liquid scintillation counting. For LCelectrospray ionization-MS/MS analysis, cells were lysed with methanol and stored at −20° C.
(§2) After centrifugation (1 min, 16000×g, 20° C.) of thawed lysates, 100 μl of the supernatant was mixed with either 10 μl unlabeled MPP+ iodide (0.5 ng/μl) or biphenyl-4-carboxylic acid (Sigma-Aldrich) as internal standard. […] Atmospheric pressure ionization with positive or negative electrospray was used. For quantification (scan time 150 ms), the optimal collision energy for argon-induced fragmentation in the second quadrupole was determined for each analyte. […] Linear calibration curves were constructed from at least six standards which were prepared using control cell lysates as solvent. Sample analyte content was calculated from the analyte response ratio and the slope of the calibration curve, obtained by linear regression. With LC-MS quantitation, solute content of cell lysates was determined for 4 conditions (paired dishes, incubation time 1 min): a) transporter expression on, uptake buffer; b) expression off, uptake buffer; c) expression on, substrate in uptake buffer; d) expression off, substrate in uptake buffer. Acute uptake mediated by heterologously expressed carrier was then calculated as (c−a)−(d−b). This approach takes into account endogenous solute content and non-specific uptake. Protein was measured by the BCA assay (Pierce) with bovine serum albumin as standard. The protein content of MS samples was estimated from 3 matched cell dishes.

OAT2r [2] = target: T1, OAT2r; experiment: 24 h accumulation in lysates of OAT2r-expressing versus control cells (LC-MS/MS); format: cell-based; conditions: for increase in OAT2r cell lysates versus control cells (factor f): 24 h incubation, compound at 100 μmol/l
Protocol: A substrate search by LC-MS difference shading was performed with 293 cells stably transfected to express OAT2 from rat. […] To verify that trigonelline is directly transported by OAT2 and not just increased indirectly, initial rates of uptake (1 min, 37° C.) of trigonelline (10 μmol/l) were determined by LC-MS/MS.
With trigonelline as substrate lead, compounds wholly or partly related in structure were analyzed for transport by OAT2 from rat.
After centrifugation (1 min, 16000×g, 20° C.) of thawed lysates, 100 μl of the supernatant was mixed with either 10 μl unlabeled MPP+ iodide (0.5 ng/μl) or biphenyl-4-carboxylic acid (Sigma-Aldrich) as internal standard. Of this mixture, […] were analyzed by LCMS/MS on a triple quadrupole mass spectrometer (4000 Q TRAP, Applied Biosystems, Darmstadt, Germany). […] Atmospheric pressure ionization with positive or negative electrospray was used. For quantification (scan time 150 ms), the optimal collision energy for argon-induced fragmentation in the second quadrupole was determined for each analyte. […] Linear calibration curves were constructed from at least six standards which were prepared using control cell lysates as solvent. Sample analyte content was calculated from the analyte response ratio and the slope of the calibration curve, obtained by linear regression. With LC-MS quantitation, solute content of cell lysates was determined for 4 conditions ([…]): a) transporter expression on, uptake buffer; b) expression off, uptake buffer; c) expression on, substrate in uptake buffer; d) expression off, substrate in uptake buffer. Acute uptake mediated by heterologously expressed carrier was then calculated as (c−a)−(d−b). This approach takes into account endogenous solute content and non-specific uptake. Protein was measured by the BCA assay (Pierce) with bovine serum albumin as standard. The protein content of MS samples was estimated from 3 matched cell dishes.

OAT2h = target: T2, OAT2h (Homo sapiens, UniProt Q9Y694); experiment: 1 min uptake into 293 cells expressing OAT2 from human; format: cell-based; conditions: radiotracer
T2 construct: expressed in transfected cells; host or cells: 293 cells (HEK-293), pEBTetD/OAT2h, doxycycline-inducible
T2 sequence (Q9Y694 1-546 isoform Q9Y694-2): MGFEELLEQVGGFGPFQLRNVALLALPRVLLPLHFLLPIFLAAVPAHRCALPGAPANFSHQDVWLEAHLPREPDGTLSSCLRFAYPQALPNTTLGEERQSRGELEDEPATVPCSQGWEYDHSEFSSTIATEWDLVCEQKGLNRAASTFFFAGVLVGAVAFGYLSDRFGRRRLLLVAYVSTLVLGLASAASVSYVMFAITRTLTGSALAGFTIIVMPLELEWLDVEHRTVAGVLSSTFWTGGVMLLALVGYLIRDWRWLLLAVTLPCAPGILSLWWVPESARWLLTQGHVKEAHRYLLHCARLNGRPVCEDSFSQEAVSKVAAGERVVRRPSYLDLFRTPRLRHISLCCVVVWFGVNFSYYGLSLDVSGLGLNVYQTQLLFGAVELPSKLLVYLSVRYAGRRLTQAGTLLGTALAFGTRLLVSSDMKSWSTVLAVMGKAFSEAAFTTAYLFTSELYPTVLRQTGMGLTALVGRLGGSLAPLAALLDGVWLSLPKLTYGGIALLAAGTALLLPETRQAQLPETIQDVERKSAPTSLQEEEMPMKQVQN
Protocol: as §1, §2

OAT2r [3] = target: T1, OAT2r; experiment: trans-stimulation of efflux of 3H-orotic acid via OAT2r; format: cell-based; conditions: 1 mmol/l compound in uptake buffer, 1 min, preloaded cells
[4] = substrate: O=C(O)c1cc(=O)[nH]c(=O)[nH]1; experiment: cells, lysate or membranes; conditions: other: saturation of OAT2r-mediated uptake, 1 min

Molecule	transport by OAT2r (in words) (OAT2r [1])	increase in OAT2r cell lysates versus control cells (factor f) (OAT2r [2])	other results
C[n+]1cccc(C(N)=O)c1 [1-methylnicotinamide]	no transport	–	–
Nc1ccccc1C(=O)O [2-aminobenzoic acid]	no transport	1.1	–
CCN(CC)CCC(=O)O [3-(diethylamino)propionic acid]	–	1.1	–
Nc1cccc(C(=O)O)c1 [3-aminobenzoic acid]	no transport	1.4	–
NC(=O)CC[C@H](N)C(=O)O [3H-glutamine, glutamine]	–	–	uptake by OAT2h (in words) (OAT2h): no uptake
Nc1ccc(C(=O)O)cc1 [4-aminobenzoic acid]	no transport	1.1	–
NCC(=O)CCC(=O)O [5-aminolevulinic acid]	no transport	–	–
O=C(O)c1[nH]c(=O)[nH]c(=O)c1F [5-fluoroorotic acid]	transported efficiently	–	–
O=C1CC[C@@H](C(=O)O)N1 [5-oxoproline]	no transport	–	–
C[N+](C)(C)C[C@H](O)CC(=O)[O-] [L-carnitine]	–	1.0	–
O=C1C[C@@H](C(=O)O)NC(=O)N1 [L-dihydroorotic acid]	no transport	–	–
O=C(O)[C@@H]1CCCN1 [L-proline]	no transport	–	–
O=C(O)c1cccnc1C(=O)O [Quinolinic acid]	–	2.7	difference in lysate content between OAT2r and control cells (in words) (OAT2r [2]; up to 1 h incubation time): virtually no difference
O=C1CC(=O)NC(=O)N1 [barbituric acid]	no transport	–	–
CN(CC(=O)O)C(=N)N [creatine]	no transport	–	–
CC1=NCC[C@@H](C(=O)O)N1 [ectoine]	–	1.2	–

Molecule	transport by OAT2r (in words) (OAT2r [1])	increase in OAT2r cell lysates versus control cells (factor f) (OAT2r [2])	other results
NCC1(CC(=O)O)CCCCC1 [gabapentin]	–	1.2	–
C[N+](C)(C)CC(=O)[O-] [glycine betaine]	–	1.0	–
N=C(N)NCC(=O)O [guanidinoacetic acid]	no transport	–	–
O=C(O)CC1NC(=O)NC1=O (stereo not shown) [hydantoin-5-acetic acid]	no transport	–	–
O=C(O)c1c[nH]c(=O)[nH]c1=O [isoorotic acid]	transported efficiently	–	–
O=C(O)c1cc(=O)c2ccccc2[nH]1 [kynurenic acid]	no transport	–	–
CC(O)C(=O)O (stereo not shown) [lactate]	–	–	trans-stimulation of efflux of 3H-orotic acid (in words) (OAT2r [3]): rejects
O=C(O)CC(O)C(=O)O (stereo not shown) [malate]	–	–	trans-stimulation of efflux of 3H-orotic acid (in words) (OAT2r [3]): rejects
NC(=O)c1cccnc1 [nicotinamide]	no transport	no significant increase	–
O=C(O)c1ccc[n+]([C@@H]2O[C@H](COP(=O)(O)O)[C@@H](O)[C@H]2O)c1 [nicotinic acid mononucleotide]	no transport	–	–
O=C([O-])c1ccc[n+]([C@@H]2O[C@H](CO)[C@@H](O)[C@H]2O)c1 [nicotinic acid riboside]	transported slightly more efficiently than trigonelline	–	–
O=C(O)c1cccnc1 [nicotinic acid]	no transport	no significant increase	–
Cc1cc2nc3c(=O)[nH]c(=O)nc-3n(C[C@H](O)[C@H](O)[C@H](O)CO)c2cc1C [riboflavin]	no transport	1.2	–
C[N+]1(C)CCC[C@H]1C(=O)[O-] [stachydrine]	no transport	1.2	–
Cc1ncc(C[n+]2csc(CCO)c2C)c(N)n1 [thiamine]	no transport	–	–
OAT2r (Rattus norvegicus) (protein) MGFEDLLDKVGGFGPFQLRNLVLMALPRMLLPMHFLLPVFMAAVPAHHCALPGAPANLSHQDLWLEAHLPRETDGSFSSCLRFAYPQTVPNVTLGTEVSNSGEPEGEPLTVPCSQGWEYDRSEFSSTIATEWDLVCQQRGLNKITSTCFFIGVLVGAVVYGYLSDRFGRRRLLLVAYVSSLVLGLMSAASINYIMFVVTRTLTGSALAGFTIIVLPLELEWLDVEHRTVAGVISTVFWSGGVLLLALVGYLIRSWRWLLLAATLPCVPGIISIWWVPESARWLLTQGRVEEAKKYLLSCAKLNGRPVGEGSLSQEALNNVVTMERALQRPSYLDLFRTSQLRHISLCCMMVWFGVNFSYYGLTLDVSGLGLNVYQTQLLFGAVELPSKIMVYFLVRRLGRRLTEAGMLLGAALTFGTSLLVSLETKSWITALVVVGKAFSEAAFTTAYLFTSELYPTVLRQTGLGLTALMGRLGASLAPLAALLDGVWLLLPKVAYGGIALVAACTALLLPETKKAQLPETIQDVERKSTQEEDV	–	–	Km [4]: 200 (95% confidence interval: 160-240) μmol/l
